According to publication PMC11995216, “End-to-End Backbone Cyclization Enhances Passive Permeability of bRo5 Oligomeric Depsipeptides with Nonlinear Size Dependence” (ACS Medicinal Chemistry Letters, 2025):
Where “and” joins values, the source holds several entries; their conditions need not be identical. Identical values can stand only once. Like-named read-outs stand apart in the source and are kept apart here.

Assays:
[1] = tested on: PAMPA
[2] = PAMPA, permeability assay across an artificial membrane; conditions: for Diffusion (%): PAMPA percent diffusion; for Acceptor Concentration, Ave: after incubation; for Δ % diffusion: increase: difference between percent diffusion of macrocycle vs linear counterpart
[3] = tested on: PAMPA; conditions: UV detection
[4] = tested on: PAMPA; remark: listed apart in the source
[5] = tested on: PAMPA; conditions: calculated using Supplement Equation 1, UV detection
[6] = tested on: PAMPA; remark: listed apart in the source
[7] = UV detection
[8] = calculated using Supplement Equation 1, UV detection
[9] = PAMPA, (acceptor + donor)/total analyte, C0 500 uM
[10] = PAMPA, Papp, ratio-based method, mean ± SD, C0 500 uM, UV detection
[11] = PAMPA, Recovery (%), PAMPA, (acceptor + donor)/total analyte, C0 500 uM

## CCCCC[C@@H]1OC(=O)[C@@H](C)N(C)C(=O)[C@H](CCCCC)OC(=O)[C@@H](C)N(C)C(=O)[C@H](CCCCC)OC(=O)[C@@H](C)N(C)C1=O [Compound C1.3, ent-verticilide B1]
[1]; Papp (x 10^-6 cm/s) – ELSD Detection / [row 1], ELSD Detection
  Papp: 4.16 ×10⁻⁶ cm/s
[1]; Papp (x 10^-6 cm/s) – ELSD Detection / [row 2], ELSD Detection
  Papp: 4.41 ×10⁻⁶ cm/s
[1]; Papp (x 10^-6 cm/s) – ELSD Detection / [row 3], ELSD Detection
  Papp: 3.96 ×10⁻⁶ cm/s
[1]; Papp (x 10^-6 cm/s) – ELSD Detection / [row 4], ELSD Detection
  Papp: 4.13 ×10⁻⁶ cm/s
[1]; Papp (x 10^-6 cm/s) – ELSD Detection / [row 5], ELSD Detection
  Papp: 4.45 ×10⁻⁶ cm/s
[1]; Papp (x 10^-6 cm/s) – ELSD Detection / [row 6], ELSD Detection
  Papp: 4.03 ×10⁻⁶ cm/s
[1]; Papp (x 10^-6 cm/s) – ELSD Detection / [row 9], ELSD Detection
  Papp: 4.31 ×10⁻⁶ cm/s
[1]; Papp (x 10^-6 cm/s) – ELSD Detection / [row 10], ELSD Detection
  Papp: 4.39 ×10⁻⁶ cm/s
[1]; Papp (x 10^-6 cm/s) – ELSD Detection / [row 11], ELSD Detection
  Papp: 3.96 ×10⁻⁶ cm/s
[1]; Papp (x 10^-6 cm/s) – ELSD Detection / [row 12], ELSD Detection
  Papp: 4.4 ×10⁻⁶ cm/s
[1]; Papp (x 10^-6 cm/s) – ELSD Detection / [row 13], ELSD Detection
  Papp: 5.05 ×10⁻⁶ cm/s
[1]; Papp (x 10^-6 cm/s) – ELSD Detection / [row 14], ELSD Detection
  Papp: 4.44 ×10⁻⁶ cm/s
[1]; Papp (x 10^-6 cm/s) – ELSD Detection / [row 15], ELSD Detection
  Papp: 4.01 ×10⁻⁶ cm/s
[1]; Papp (x 10^-6 cm/s) – UV Detection / [row 1], UV Detection
  Papp: 3.32 ×10⁻⁶ cm/s
[1]; Papp (x 10^-6 cm/s) – UV Detection / [row 2], UV Detection
  Papp: 4.01 ×10⁻⁶ cm/s
[1]; Papp (x 10^-6 cm/s) – UV Detection / [row 3], UV Detection
  Papp: 4.37 ×10⁻⁶ cm/s
[1]; Papp (x 10^-6 cm/s) – UV Detection / [row 4], UV Detection
  Papp: 3.67 ×10⁻⁶ cm/s
[1]; Papp (x 10^-6 cm/s) – UV Detection / [row 5], UV Detection
  Papp: 3.75 ×10⁻⁶ cm/s
[1]; Papp (x 10^-6 cm/s) – UV Detection / [row 7], UV Detection
  Papp: 3.19 ×10⁻⁶ cm/s
[1]; Papp (x 10^-6 cm/s) – UV Detection / [row 8], UV Detection
  Papp: 4 ×10⁻⁶ cm/s
[1]; Papp (x 10^-6 cm/s) – UV Detection / [row 9], UV Detection
  Papp: 3.36 ×10⁻⁶ cm/s
[1]; Papp (x 10^-6 cm/s) – UV Detection / [row 10], UV Detection
  Papp: 3.7 ×10⁻⁶ cm/s
[1]; Papp (x 10^-6 cm/s) – UV Detection / [row 11], UV Detection
  Papp: 3.24 ×10⁻⁶ cm/s
[1]; Papp (x 10^-6 cm/s) – UV Detection / [row 12], UV Detection
  Papp: 3.17 ×10⁻⁶ cm/s
[1]; Papp (x 10^-6 cm/s) – UV Detection / [row 13], UV Detection
  Papp: 3.78 ×10⁻⁶ cm/s
[1]; Papp (x 10^-6 cm/s) – UV Detection / [row 14], UV Detection
  Papp: 3.81 ×10⁻⁶ cm/s
[1]; Papp (x 10^-6 cm/s) – UV Detection / [row 15], UV Detection
  Papp: 3.57 ×10⁻⁶ cm/s
[2]; C0 500 uM
  Diffusion (%): 18.04% and 18.0 ± 1.5%
[2]; [9]
  Recovery (%): 91%
[2]; PAMPA, Papp, Ave, ELSD detection, C0 500 uM
  Papp at 500 uM: 4.24 ×10⁻⁶ cm/s
[2]; [10]
  Papp at 500 uM: 3.64 ± 0.42 ×10⁻⁶ cm/s
[2]; [11]
  recovery at 500 uM: 91.2%
[2]; PAMPA, ELSD detection, C0 500 uM
  Acceptor Concentration, Ave: 101.2 µM
[2]; PAMPA, UV detection, C0 500 uM
  Acceptor Concentration, Ave: 89.4 µM
[2]
  Δ % diffusion: ↑3%
[3]; Well 1 / %R, Well 1
  % recovery: 97% and 94% and 93%
[3]; Well 2 / %R, Well 2
  % recovery: 94% and 92%
[3]; Well 3 / %R, Well 3
  % recovery: 88% and 89% and 94%
[3]; Well 4 / %R, Well 4
  % recovery: 94% and 89% and 90%
[3]; Well 5 / %R, Well 5
  % recovery: 87%
[4]; Acceptor Concentration (uM) – ELSD Detection / [row 1]
  Acceptor Concentration: 102 µM
[4]; Acceptor Concentration (uM) – ELSD Detection / [row 2]
  Acceptor Concentration: 106 µM
[4]; Acceptor Concentration (uM) – ELSD Detection / [row 3]
  Acceptor Concentration: 96 µM
[4]; Acceptor Concentration (uM) – ELSD Detection / [row 4]
  Acceptor Concentration: 101 µM
[4]; Acceptor Concentration (uM) – ELSD Detection / [row 5]
  Acceptor Concentration: 106 µM
[4]; Acceptor Concentration (uM) – ELSD Detection / [row 6]
  Acceptor Concentration: 98.1 µM
[4]; Acceptor Concentration (uM) – ELSD Detection / [row 7]
  Acceptor Concentration: 103 µM
[4]; Acceptor Concentration (uM) – ELSD Detection / [row 8]
  Acceptor Concentration: 90.6 µM
[4]; Acceptor Concentration (uM) – ELSD Detection / [row 9]
  Acceptor Concentration: 103 µM
[4]; Acceptor Concentration (uM) – ELSD Detection / [row 10]
  Acceptor Concentration: 101 µM
[4]; Acceptor Concentration (uM) – ELSD Detection / [row 11]
  Acceptor Concentration: 96.3 µM
[4]; Acceptor Concentration (uM) – ELSD Detection / [row 12]
  Acceptor Concentration: 107 µM
[4]; Acceptor Concentration (uM) – ELSD Detection / [row 13]
  Acceptor Concentration: 112 µM
[4]; Acceptor Concentration (uM) – ELSD Detection / [row 14]
  Acceptor Concentration: 102 µM
[4]; Acceptor Concentration (uM) – ELSD Detection / [row 15]
  Acceptor Concentration: 94.9 µM
[4]; Acceptor Concentration (uM) – UV Detection / [row 1]
  Acceptor Concentration: 89.6 µM
[4]; Acceptor Concentration (uM) – UV Detection / [row 2]
  Acceptor Concentration: 100 µM
[4]; Acceptor Concentration (uM) – UV Detection / [row 3]
  Acceptor Concentration: 101 µM
[4]; Acceptor Concentration (uM) – UV Detection / [row 4]
  Acceptor Concentration: 93.8 µM
[4]; Acceptor Concentration (uM) – UV Detection / [row 5]
  Acceptor Concentration: 88.6 µM
[4]; Acceptor Concentration (uM) – UV Detection / [row 6]
  Acceptor Concentration: 79.9 µM
[4]; Acceptor Concentration (uM) – UV Detection / [row 7]
  Acceptor Concentration: 82.2 µM
[4]; Acceptor Concentration (uM) – UV Detection / [row 8]
  Acceptor Concentration: 95.3 µM
[4]; Acceptor Concentration (uM) – UV Detection / [row 9]
  Acceptor Concentration: 83.1 µM
[4]; Acceptor Concentration (uM) – UV Detection / [row 10]
  Acceptor Concentration: 88.1 µM
[4]; Acceptor Concentration (uM) – UV Detection / [row 11]
  Acceptor Concentration: 84 µM
[4]; Acceptor Concentration (uM) – UV Detection / [row 12]
  Acceptor Concentration: 81.4 µM
[4]; Acceptor Concentration (uM) – UV Detection / [row 13]
  Acceptor Concentration: 95.3 µM
[4]; Acceptor Concentration (uM) – UV Detection / [row 14]
  Acceptor Concentration: 92.2 µM
[4]; Acceptor Concentration (uM) – UV Detection / [row 15]
  Acceptor Concentration: 85.4 µM
[5]; Well 1 / %T, Well 1
  %T: 0.44% (2×) and 0.41%
[5]; Well 2 / %T, Well 2
  %T: 0.51% and 0.43% (2×)
[5]; Well 3 / %T, Well 3
  %T: 0.54% and 0.51% and 0.49%
[5]; Well 4 / %T, Well 4
  %T: 0.48% (2×) and 0.45%
[5]; Well 5 / %T, Well 5
  %T: 0.48% (2×) and 0.47%
[6]; Well 1 / [donor]
  donor concentration after incubation: 396 µM and 390 µM and 380 µM
[6]; Well 2 / [donor]
  donor concentration after incubation: 370 µM and 376 µM and 374 µM
[6]; Well 3 / [donor]
  donor concentration after incubation: 341 µM and 351 µM and 372 µM
[6]; Well 4 / [donor]
  donor concentration after incubation: 377 µM and 362 µM and 356 µM
[6]; Well 5 / [donor]
  donor concentration after incubation: 347 µM and 349 µM and 351 µM

## CCCCC[C@H](OC(=O)[C@@H](C)N(C)C(=O)[C@H](CCCCC)OC(=O)[C@@H](C)N(C)C(=O)[C@H](CCCCC)OC(=O)[C@@H](C)N(C)C(=O)[C@H](CCCCC)OC(=O)[C@@H](C)N(C)C(=O)[C@H](CCCCC)OC(=O)[C@@H](C)N(C)C(=O)[C@H](CCCCC)OC(=O)[C@@H](C)N(C)C(=O)OC(C)(C)C)C(=O)OCc1ccccc1 [Compound L1.6]
[1]; Papp (x 10^-6 cm/s) / experiment 1, UV detection
  Papp: 0.4 ×10⁻⁶ cm/s
[1]; Papp (x 10^-6 cm/s) / experiment 2, UV detection
  Papp: 0.44 ×10⁻⁶ cm/s
[1]; Papp (x 10^-6 cm/s) / experiment 3, UV detection
  Papp: 0.41 ×10⁻⁶ cm/s
[1]; Papp (x 10^-6 cm/s) / experiment 5, UV detection
  Papp: 0.44 ×10⁻⁶ cm/s
[1]; Papp (x 10^-6 cm/s) / experiment 6, UV detection
  Papp: 0.43 ×10⁻⁶ cm/s
[1]; Papp (x 10^-6 cm/s) / experiment 7, UV detection
  Papp: 0.41 ×10⁻⁶ cm/s
[1]; Papp (x 10^-6 cm/s) / experiment 8, UV detection
  Papp: 0.43 ×10⁻⁶ cm/s
[1]; Papp (x 10^-6 cm/s) / experiment 10, UV detection
  Papp: 0.4 ×10⁻⁶ cm/s
[2]; C0 500 uM
  Diffusion (%): < 5%
[2]; [9]
  Recovery (%): 84%
[2]; [10]
  Papp: 0.42 ×10⁻⁶ cm/s
[2]; [11]
  recovery: 83.7%
[2]; PAMPA, UV detection, C0 500 uM
  Acceptor Concentration, Ave: < 25 µM
[2]
  Δ % diffusion: ↑2%
[7]; Well 1 / %R, Well 1
  % recovery: 87% and 82%
[7]; Well 2 / %R, Well 2
  % recovery: 80% and 87%
[7]; Well 3 / %R, Well 3
  % recovery: 85% and 82%
[7]; Well 4 / %R, Well 4
  % recovery: 83%
[7]; Well 5 / %R, Well 5
  % recovery: 81% and 88%
[8]; Well 1 / %T, Well 1
  %T: 0.32% and 0.44%
[8]; Well 2 / %T, Well 2
  %T: 0.37% and 0.33%
[8]; Well 3 / %T, Well 3
  %T: 0.44% and 0.4%
[8]; Well 4 / %T, Well 4
  %T: 0.41%
[8]; Well 5 / %T, Well 5
  %T: 0.37%
Well 1 / [donor]
  donor concentration after incubation: 435 µM and 410 µM
Well 2 / [donor]
  donor concentration after incubation: 398 µM and 434 µM
Well 3 / [donor]
  donor concentration after incubation: 424 µM and 410 µM
Well 4 / [donor]
  donor concentration after incubation: 416 µM and 415 µM
Well 5 / [donor]
  donor concentration after incubation: 403 µM and 438 µM
